Entries after “also recorded” stand apart in the source; their conditions may differ. Where two headings read alike, the source gives them in different places.
Experiments:
[1] = Tissue distribution in rats; assay type: in vivo; details: S-IG 13 mg/kg
Procedure: The male and female rats were euthanized by femoral artery bleeding under anesthesia after the single-dose intragastric administration of HY-071085 (13 mg/kg) for 10 min, 45 min and 4 h, and the tissues were separated for the analysis of the concentration of HY-071085 in the homogenate.
Tissue distribution in rats: Rats were randomly allocated into three groups (10 rats/group) for the tissue distribution studies. These rats were sacrificed at 10 min, 45 min and 4 h after orally administering HY-071085. Fourteen organs—the heart, liver, spleen, lung, kidney, stomach, gut, muscle, fat, skin, brain, ovary (female), womb (female) and testis (male)—were removed, washed in normal saline, and dried with filter papers immediately. The organs were accurately weighed and individually homogenized with an appropriate amount of deionized water. The tissue homogenate was stored at –80 °C until analysis.

[2] = Pharmacokinetics after single-dose intravenous administration in rats; assay type: in vivo, Sprague Dawley rats; details: S-IV 3.25 mg/kg; for AUC(0-inf) / AUC / MRT / half-life: rat, plasma; for AUC: read-out: AUC0-tn
Procedure: The PK parameters after the intravenous administration of 3.25 mg/kg HY-071085 (before use, prepared with 5% DMSO + 95% normal saline mixture) are listed in Table 1.
In vivo PK profiling in the rats: Sprague Dawley rats (approximately 177–221 g in weight) were purchased from Shanghai Xipur-Bikai Experimental Animal Co., Ltd. (Shanghai, China). Before the experiment, several rats were randomly divided into several groups, half males and half females in each group, fasting but free to drink water for 12 h. The dosage of the rats was dependent on the drug pharmacology: the HY-071085 active pharmaceutical ingredients were administered with a dosage volume of 0.25 mL/100 g body weight. The whole-blood samples were centrifuged at 8000 rpm for 5 min, and the plasma samples were separated and stored at –80 °C until the analysis.
According to the obtained plasma concentration time data, the pharmacokinetic parameters were calculated using Phoenix WinNonlin 8.1 software. The pharmacokinetic parameters—i.e., the area under the curve (AUC), mean residence time (MRT), clearance rate (Cl/F) and steady-state apparent distribution volume (Vss/F)—were calculated by the method of moments, which was estimated according to the following formulae: AUCtn=∑Ci+Ci−1ti−ti−1/2 AUC∞=AUCtn+Cm/λ AUMCtn=∑tiCi+ti−1Ci−1ti−ti−1/2 AUMC∞=AUMCtn+Ctntn/λ+1/λ^2 MRT=AUMC∞/AUC∞ Cl/F=Dose/AUC Vss/F=Cl∗MRT where Ctn is the plasma concentration of tn at the last point after administration, and the elimination rate constant was obtained by ln(concentration) time linear regression.
Due to the drug having significant individual differences in rats, it could not be uniformly fitted with a PK atrioventricular model; as such, the pharmacokinetic parameters analyzed in this study were calculated using a non-atrioventricular model. The pharmacokinetic parameters are defined as follows: Cmax is the maximum blood concentration after administration and absorption, Tmax is the time required to reach Cmax, t1/2 is the time required to eliminate half of the plasma drug concentration after the drug distribution in the body reaches equilibrium, Cl/F is the apparent clearance rate, AUC0-tn is the area under the blood concentration time curve within the dosing interval, AUC0-∞ is the area under the plasma concentration time curve from 0 to infinity, MRT is the average time that all drug molecules stay in the body, and Vss/F is the steady-state apparent distribution volume, which is the product of the clearance rate and average residence time.

[3] = set-up: method as in earlier work; details: Temp 25℃; cited from earlier work
[4] = Excretion in feces, urine and bile (material balance) in rats; assay type: in vivo, Sprague Dawley rats
Procedure: After the single-dose intragastric administration of HY-071085 (6.5 mg/kg) to male and female rats, their feces, urine and bile were collected at various time points within 24 h in order to analyze the excretion of HY-071085. The amount of unchanged parent compound recovered from the feces, urine and bile was negligible in rats (about 1.3% of the dose, Table 3).
Excretion in urine and feces (rats): The Sprague Dawley rats were aged approximately 6 weeks old and weighed 185–212 g at the onset of treatment. Urine and fecal samples were collected for the excretion study using metabolic cages. After the oral administration of 6.5 mg/kg HY-071085, urine and feces were collected at 0–6, 6–12 and 12–24 h. The urine volumes were recorded and transferred to centrifuge tubes. The fecal weights were recorded at each sampling period, and then those feces were dried, ground and mixed thoroughly. Then, 0.1 g feces was accurately weighed, mixed with 1 mL deionized water, and homogenized to be used as a fecal sample. All of the samples were stored at –80 °C until the analysis.
Excretion in bile (rats): The Sprague Dawley rats were approximately 6 weeks old and weighed 174–215 g at the onset of treatment. The rats were anesthetized with diethyl ether, and the bile duct was then cannulated for bile collection. After allowing recovery from surgery and anesthesia, these bile duct–cannulated rats were administered a single 6.5 mg/kg dose of HY-071085 by gastric gavage.

[5] = gavage 6.5 mg/kg, within 24 h, % of the dose

For `CC1(C)OC2CC(=O)OCC23C1C/C(=N\OCCN1CCOCC1)C1(C)C3CC[C@@]2(C)[C@H](c3ccoc3)OC(=O)C3OC312` (stereo partly drawn) [HY-071085, (12S,12aS,E)-12-(furan-3-yl)-6,6,8a,12a-tetramethyl-8-((2-morpholinoethoxy)imino)dodecahydro-1H,3H-oxireno [2,3-d]pyrano [4’,3’:3,3a]isobenzofuro [5,4-f]isochromene-3,10(9aH)-dione], which “concentration in the brain” value [1] is on record?
The value was “extremely low”.

What about the tissue distribution ([1]; 10 min, 45 min and 4 h) of the same compound?
The tissue distribution was “mainly distributed in the gastric, intestine, liver, spleen, lung and kidney tissues; also recorded: mainly distributed in most of the tissues except the brain”.

And the AUC(0-inf) ([2]; Sprague Dawley, female rats)?
Its AUC(0-inf) is 684 ± 39.2 ng·h/mL.

And the AUC ([2]; Sprague Dawley, female rats)?
The AUC was 682 ± 225 ng·h/mL.

What about the AUC(0-inf) ([2]; Sprague Dawley, male rats) of the same compound?
Its AUC(0-inf) is 740 ± 146 ng·h/mL.

And the MRT ([2]; Sprague Dawley, male rats)?
The MRT was 17.4 ± 2.4 min.

And the AUC ([2]; Sprague Dawley, male rats)?
Its AUC is 739 ± 146 ng·h/mL.

And the MRT ([2]; Sprague-Dawley, female rats)?
The MRT was 20.4 ± 3 min.

And the half-life ([2]; Sprague-Dawley, female rats)?
Its half-life is 20.4 ± 3 min.

What about the half-life ([2]; Sprague-Dawley, male rats) of the same compound?
Its half-life is 24 ± 6 min.

And the Cl/F ([2]; female rats)?
The Cl/F was 79.3 ± 4.5 mL/min/kg.

And the Vss/F ([2]; female rats)?
Its Vss/F is 1.63 ± 0.17 L/kg.

What about the Cl/F ([2]; male rats) of the same compound?
Its Cl/F is 75 ± 11.8 mL/min/kg.

And the Vss/F ([2]; male rats)?
Its Vss/F is 1.31 ± 0.18 L/kg.

What about the Intrinsic solubility [3] of the same compound?
The Intrinsic solubility was 4500 µg/mL.

And the route of elimination ([4]; excretion and material balance)?
The route of elimination was “mainly eliminated as metabolites; also recorded: mainly eliminated by metabolism”.

What about the “HY-071085 prototype recovered in bile” value ([4]; gavage 6.5 mg/kg, bile 0~8 h, % of the dose) of the same compound?
Its value is 0.206 ± 0.206%.

What about the “HY-071085 prototype recovered in feces” value [4, 5] of the same compound?
The value was 0.812 ± 0.611%.

And the “HY-071085 prototype recovered in urine” value [4, 5]?
The value was 0.254 ± 0.164%.
